Experiment [1] deals with erythroid progenitor cells (EPCs). The experiment can be described thus: Fetal hemoglobin (HbF) ELISA in day 7 erythroid progenitor cells.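 As to all read-outs here: for fetal hemoglobin induction normalized to vehicle-treated cells.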 Type of experiment: cell-based, human. To be noted: HbF ELISA, day 7 EPCs, 5 days; for EC50: Homo sapiens, Erythroid progenitor cell, read-out: EPC ELISA (pEC50 category) (converted). The method in brief: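 Read-out was OD450 from an HRP/TMB sandwich ELISA on lysates, normalized to DMSO-only control wells. Thawed day 7 EPCs from human marrow CD34+ cells had been treated for 5 days at 37° C with Compound A, 22 concentrations […].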

Experiment [2] concerns the target DNMT1 (Homo sapiens, UniProt P26358). The experiment can be described thus: DNMT1 biochemical activity, breaklight assay and/or SPA assay.
The mark [3] stands for this setting: binned activity in either the breaklight or the SPA assay.
The mark [4] stands for this setting: binned activity in either the breaklight or the SPA assay, read-out: DNMT1 BioChemical (pIC50 category) (converted).
Setting [5] is: breaklight assay and/or SPA assay, repeated experimental runs, read-out: average pIC50 against DNMT1 (converted).

Values joined by “and” are separate entries in the source; they are usually repeats but may differ in a detail not shown here. Equal entries are not always repeated. Structures can show the parent of a compound that is named as a salt. Where two headings read alike, the source gives them in different places.

Chain of DNMT1 (P26358 whole entry, looked up): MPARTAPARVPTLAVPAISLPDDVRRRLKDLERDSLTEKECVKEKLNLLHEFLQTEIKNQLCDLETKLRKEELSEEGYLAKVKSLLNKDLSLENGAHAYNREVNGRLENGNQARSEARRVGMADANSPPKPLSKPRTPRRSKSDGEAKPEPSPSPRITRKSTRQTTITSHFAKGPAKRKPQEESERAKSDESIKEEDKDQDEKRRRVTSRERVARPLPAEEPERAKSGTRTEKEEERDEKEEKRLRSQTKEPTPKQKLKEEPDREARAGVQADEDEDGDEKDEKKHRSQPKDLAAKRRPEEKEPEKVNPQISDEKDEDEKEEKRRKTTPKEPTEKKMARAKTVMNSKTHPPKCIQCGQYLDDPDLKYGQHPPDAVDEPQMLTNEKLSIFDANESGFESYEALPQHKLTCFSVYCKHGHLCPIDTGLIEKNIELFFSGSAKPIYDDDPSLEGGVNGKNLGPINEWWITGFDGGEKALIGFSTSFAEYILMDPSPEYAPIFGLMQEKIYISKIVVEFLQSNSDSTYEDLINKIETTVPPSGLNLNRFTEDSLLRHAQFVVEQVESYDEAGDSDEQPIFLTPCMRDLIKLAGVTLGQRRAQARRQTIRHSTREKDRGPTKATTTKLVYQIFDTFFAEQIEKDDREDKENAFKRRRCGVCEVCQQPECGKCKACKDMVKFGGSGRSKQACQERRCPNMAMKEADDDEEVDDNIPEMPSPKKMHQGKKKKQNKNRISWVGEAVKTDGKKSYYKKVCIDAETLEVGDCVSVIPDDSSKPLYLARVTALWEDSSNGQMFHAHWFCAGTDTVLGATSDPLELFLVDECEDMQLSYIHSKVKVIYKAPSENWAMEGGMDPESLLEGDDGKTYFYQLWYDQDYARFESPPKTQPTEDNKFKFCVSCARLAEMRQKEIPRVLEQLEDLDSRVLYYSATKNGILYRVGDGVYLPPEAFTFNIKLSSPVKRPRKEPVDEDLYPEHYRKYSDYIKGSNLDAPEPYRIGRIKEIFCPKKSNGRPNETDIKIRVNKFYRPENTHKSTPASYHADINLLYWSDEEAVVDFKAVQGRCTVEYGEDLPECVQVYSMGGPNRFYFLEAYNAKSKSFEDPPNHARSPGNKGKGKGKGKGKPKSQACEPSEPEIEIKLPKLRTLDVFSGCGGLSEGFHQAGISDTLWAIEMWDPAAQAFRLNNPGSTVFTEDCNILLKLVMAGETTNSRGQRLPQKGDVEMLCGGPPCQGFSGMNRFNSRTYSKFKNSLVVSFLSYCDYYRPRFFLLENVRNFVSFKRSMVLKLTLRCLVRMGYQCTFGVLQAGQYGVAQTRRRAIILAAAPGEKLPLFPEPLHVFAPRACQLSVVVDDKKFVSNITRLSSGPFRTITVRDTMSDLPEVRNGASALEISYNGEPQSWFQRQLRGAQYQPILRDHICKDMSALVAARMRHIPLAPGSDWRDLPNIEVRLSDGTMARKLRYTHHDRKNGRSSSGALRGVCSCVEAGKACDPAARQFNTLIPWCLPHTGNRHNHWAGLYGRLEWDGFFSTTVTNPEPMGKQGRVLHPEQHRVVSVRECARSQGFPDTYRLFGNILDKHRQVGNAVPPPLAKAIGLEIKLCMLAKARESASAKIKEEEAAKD

For `N#Cc1c(SC(C(N)=O)c2ccccc2)nc(N2CC(NC(=O)[C@H](N)CO)C2)c(C#N)c1C1CC1` (stereo partly drawn) [Example 614, (2R)-2-amino-N-(1-(6-((2-amino-2-oxo-1-phenylethyl)thio)-3,5-dicyano-4-cyclopropylpyridin-2-yl)azetidin-3-yl)-3-hydroxypropanamide], in experiment [1], the EC50 is 1000 to 31600 nM. For the same compound, the “DNMT1 BioChemical (pIC50 category)” value in experiment [2] (setting [3]) is listed as “D (Category D: ≥6.5)”.
`CCc1c(C#N)c(SC(C(N)=O)c2ccccc2)nc(N(C)CCONC(=N)N)c1C#N` (stereo not drawn) [Example 644, 2-((3,5-dicyano-4-ethyl-6-((2-(guanidinooxy)ethyl)(methyl)amino)pyridin-2-yl)thio)-2-phenylacetamide]: the EC50 in experiment [1] is 1000 to 31600 nM. In addition, in experiment [2] (setting [3]), the “DNMT1 BioChemical (pIC50 category)” value is “D (Category D: ≥6.5)”.
On to `CCc1c(C#N)c(S[C@@H](C(N)=O)c2ccccc2)nc(N2CC[C@H](N)[C@@H](F)C2)c1C#N` [Example 519, (R)-2-((6-((3S,4S)-4-amino-3-fluoropiperidin-1-yl)-3,5-dicyano-4-ethylpyridin-2-yl)thio)-2-phenylacetamide, Trifluoroacetic acid salt], for which the EC50 in experiment [1] is under 316 nM. Besides, in experiment [2] (setting [3]), the “DNMT1 BioChemical (pIC50 category)” value is on record as “D (Category D: ≥6.5)”.
Take `CCc1c(C#N)c(SC(C(N)=O)c2ccccc2)nc(N2CCC(NCC(C)(C)O)CC2)c1C#N` (stereo not drawn) [Example 447, 2-((3,5-dicyano-4-ethyl-6-(4-((2-hydroxy-2-methylpropyl)amino)piperidin-1-yl)pyridin-2-yl)thio)-2-phenylacetamide]: in experiment [1], the EC50 is under 316 nM. In addition, the “DNMT1 BioChemical (pIC50 category)” value in experiment [2] (setting [3]) is listed as “D (Category D: ≥6.5)”.
In the same order, the values of `CCc1c(C#N)c(SC(C(N)=O)c2ccccc2)nc(N2CC[C@H](N(C)C)C2)c1C#N` (stereo partly drawn) [Example 539, 2-((3,5-dicyano-6-((S)-3-(dimethylamino)pyrrolidin-1-yl)-4-ethylpyridin-2-yl)thio)-2-phenylacetamide] are 1000 to 31600 nM and “D (Category D: ≥6.5)”.
For the compound `CCc1c(C#N)c(SCc2ccc(CS(C)(=O)=O)cc2)nc(N2CCCN(C)CC2)c1C#N` [Example 403, 4-Ethyl-2-(4-methyl-1,4-diazepan-1-yl)-6-(4-(methylsulfonylmethyl)benzylthio)pyridine-3,5-dicarbonitrile], the EC50 in experiment [1] is 316 to 1000 nM. In experiment [2] (setting [4]), the IC50 is 316 to 1000 nM.
For `CCc1c(C#N)c(SC(C(N)=O)c2ccccc2)nc(N(C)CC(=O)N(CCO)CCO)c1C#N` (stereo not drawn) [Example 668, 2-((6-((2-amino-2-oxo-1-phenylethyl)thio)-3,5-dicyano-4-ethylpyridin-2-yl)(methyl)amino)-N,N-bis(2-hydroxyethyl)acetamide], the EC50 in experiment [1] is 316 to 1000 nM. The “DNMT1 BioChemical (pIC50 category)” value in experiment [2] (setting [3]) is on record as “D (Category D: ≥6.5)”.
In the case of `CCc1c(C#N)c(S[C@@H](C(N)=O)c2ccccc2)nc(N(C)CCCO)c1C#N` [Example 695, (R)-2-((3,5-dicyano-4-ethyl-6-((3-hydroxypropyl)(methyl)amino)pyridin-2-yl)thio)-2-phenylacetamide], in experiment [1], the EC50 is 1000 to 31600 nM. Further, in experiment [2] (setting [3]), the “DNMT1 BioChemical (pIC50 category)” value is reported as “D (Category D: ≥6.5)”.
As for `CN(CC(=O)N(CCO)CCO)c1nc(SC(C(N)=O)c2ccccc2)c(C#N)c(C2CC2)c1C#N` (stereo not drawn) [Example 641, 2-((6-((2-amino-2-oxo-1-phenylethyl)thio)-3,5-dicyano-4-cyclopropylpyridin-2-yl)(methyl)amino)-N,N-bis(2-hydroxyethyl)acetamide], the EC50 in experiment [1] is 1000 to 31600 nM. In addition, in experiment [2] (setting [3]), the “DNMT1 BioChemical (pIC50 category)” value is given as “D (Category D: ≥6.5)”.
For `CCc1c(C#N)c(SC(C(N)=O)c2ccc(OC)cn2)nc(N(C)C)c1C#N` (stereo not drawn) [Example 237, 2-((3,5-Dicyano-6-(dimethylamino)-4-ethylpyridin-2-yl)thio)-2-(5-methoxypyridin-2-yl)acetamide], the EC50 in experiment [1] is 1000 to 31600 nM. Moreover, the IC50 in experiment [2] (setting [4]) is 316 to 1000 nM; in experiment [2] (setting [5]), 316 to 1000 nM and 398 nM.
As to `CCc1c(C#N)c(S[C@H](C(N)=O)c2ccccc2)nc(N2CC(N)C2)c1C#N` (stereo in doubt) [Example 635, 2-((6-(3-aminoazetidin-1-yl)-3,5-dicyano-4-ethylpyridin-2-yl)thio)-2-phenylacetamide], the EC50 in experiment [1] is 316 to 1000 nM. The “DNMT1 BioChemical (pIC50 category)” value in experiment [2] (setting [3]) is listed as “D (Category D: ≥6.5)”.
Regarding `CCc1c(C#N)c(SC(C(N)=O)c2ccccc2)nc(N2CCC3(CCN(C)C3)CC2)c1C#N` (stereo not drawn) [Example 215, 2-((3,5-Dicyano-4-ethyl6-(2-methyl-2,8-diazaspiro[4.5]decan-8-yl)pyridin-2-yl)thio)-2-phenylacetamide], in experiment [1], the EC50 is under 316 nM. The “DNMT1 BioChemical (pIC50 category)” value in experiment [2] (setting [3]) is “D (Category D: ≥6.5)”.
With `CCc1c(C#N)c(SCc2ccc(C(N)=O)cc2)nc(N2CCCN(C)CC2)c1C#N` [Example 70, 4-(((3,5-Dicyano-4-ethyl-6-(4-methyl-1,4-diazepan-1-yl)pyridin-2-yl)thio)methyl)benzamide], in experiment [1], the EC50 is 316 to 1000 nM. Further, the IC50 in experiment [2] (setting [4]) and in experiment [2] (setting [5]) was 316 to 1000 nM in each case.
On to `CCc1c(C#N)c(SC(C(N)=O)c2cccnc2)nc(N2CC[C@H](O)C2)c1C#N` (stereo partly drawn) [Example 181, 2-((3,5-Dicyano-4-ethyl-6-((S)-3-hydroxypyrrolidin-1-yl)pyridin-2-yl)thio)-2-(pyridin-3-yl)acetamide], for which the EC50 in experiment [1] is 1000 to 31600 nM. Also, in experiment [2] (setting [4]), the IC50 was 316 to 1000 nM.
For `CCc1c(C#N)c(SC(C(N)=O)c2ccc(S(=O)(=O)NC)cc2)nc(N(C)C)c1C#N` (stereo not drawn) [Example 402], the EC50 in experiment [1] was 1000 to 31600 nM. Further, the “DNMT1 BioChemical (pIC50 category)” value in experiment [2] (setting [3]) is reported as “D (Category D: ≥6.5)”.
For the compound `CCc1c(C#N)c(SC(C(N)=O)c2ccccc2)nc(N2CCc3[nH]nnc3C2)c1C#N` (stereo not drawn) [Example 359, 2-((3,5-Dicyano-6-(6,7-dihydro-1H-[1,2,3]triazolo[4,5-c]pyridin-5(4H)-yl)-4-ethylpyridin-2-yl)thio)-2-phenylacetamide], the EC50 in experiment [1] was 1000 to 31600 nM. Further, in experiment [2] (setting [4]), the IC50 was 316 to 1000 nM.
`CCc1c(C#N)c(SC(C(N)=O)c2ccccc2)nc(N2CCO[C@H](CNC(=O)C(C)(C)N)C2)c1C#N` (stereo partly drawn) [Example 581, 2-amino-N-(((2R)-4-(6-((2-amino-2-oxo-1-phenylethyl)thio)-3,5-dicyano-4-ethylpyridin-2-yl)morpholin-2-yl)methyl)-2-methylpropanamide]: the EC50 in experiment [1] was under 316 nM. For the same compound, the “DNMT1 BioChemical (pIC50 category)” value in experiment [2] (setting [3]) was “D (Category D: ≥6.5)”.
With `CCc1c(C#N)c(SC(C(N)=O)c2ccccc2)nc(N2CCC(NCC(C)(C)C)CC2)c1C#N` (stereo not drawn) [Example 550, 2-((3,5-dicyano-4-ethyl-6-(4-(neopentylamino)piperidin-1-yl)pyridin-2-yl)thio)-2-phenylacetamide], the EC50 in experiment [1] was under 316 nM. Moreover, the “DNMT1 BioChemical (pIC50 category)” value in experiment [2] (setting [3]) is listed as “D (Category D: ≥6.5)”.
In the case of `CCc1c(C#N)c(SC(C(N)=O)c2ccccc2)nc(N2CCC(N3C(=O)COC3=O)CC2)c1C#N` (stereo not drawn) [Example 260, 2-((3,5-Dicyano-6-(4-(2,4-dioxooxazolidin-3-yl)piperidin-1-yl)-4-ethylpyridin-2-yl)thio)-2-phenylacetamide], the EC50 in experiment [1] is 1000 to 31600 nM. The IC50 in experiment [2] (setting [4]) was 316 to 1000 nM.
With `CCc1c(C#N)c(SC(C(N)=O)c2ccccc2)nc(N2CCC[C@H](NCC(F)F)C2)c1C#N` (stereo partly drawn) [Example 690, 2-((3,5-dicyano-6-((S)-3-((2,2-difluoroethyl)amino)piperidin-1-yl)-4-ethylpyridin-2-yl)thio)-2-phenylacetamide], the EC50 in experiment [1] is 1000 to 31600 nM. Besides, the “DNMT1 BioChemical (pIC50 category)” value in experiment [2] (setting [3]) is recorded as “D (Category D: ≥6.5)”.
With `CCc1c(C#N)c(S[C@@H](C(N)=O)c2ccccc2)nc(N2CCC(O)(CN)C2)c1C#N.Cl` (stereo in doubt) [Example 423, (R)-2-((6-((R)-3-(aminomethyl)-3-hydroxypyrrolidin-1-yl)-3,5-dicyano-4-ethylpyridin-2-yl)thio)-2-phenylacetamide hydrochloride], the “EPC ELISA (pEC50 category)” value in experiment [1] is “C (Category C: 6.0 ≤ x < 6.5)”. In addition, the “DNMT1 BioChemical (pIC50 category)” value in experiment [2] (setting [3]) is on record as “D (Category D: ≥6.5)”.
For the compound `CCc1c(C#N)c(S[C@@H](C(N)=O)c2ccccc2)nc(N2CC[C@@H](O)C2)c1C#N` [Example 134, (R)-2-((3,5-Dicyano-4-ethyl-6-((R)-3-hydroxypyrrolidin-1-yl)pyridin-2-yl)thio)-2-phenylacetamide], the EC50 in experiment [1] is 1000 to 31600 nM. Besides, the IC50 in experiment [2] (setting [4]) is 316 to 1000 nM.
`CCc1c(C#N)c(SC(C(N)=O)c2ccccc2)nc(N2CC(N)C2)c1C#N` (stereo not drawn) [Example 281, 2-((6-(3-Aminoazetidin-1-yl)-3,5-dicyano-4-ethylpyridin-2-yl)thio)-2-phenylacetamide]: the EC50 in experiment [1] is 316 to 1000 nM. Moreover, the “DNMT1 BioChemical (pIC50 category)” value in experiment [2] (setting [3]) is “D (Category D: ≥6.5)”.
Consider `CCc1c(C#N)c(SC(C(N)=O)c2ccccc2)nc(N2CCN(Cc3ncco3)CC2)c1C#N` (stereo not drawn) [Example 176, 2-((3,5-Dicyano-4-ethyl-6-(4-(oxazol-2-ylmethyl)piperazin-1-yl)pyridin-2-yl)thio)-2-phenylacetamide], for which, in experiment [1], the EC50 was 316 to 1000 nM. Also, the IC50 in experiment [2] (setting [4]) was 316 to 1000 nM.
In the case of `CCc1c(C#N)c(SCc2ccc(B(O)O)cc2)nc(N2CCCN(C)CC2)c1C#N` [Example 357, 4-((3,5-Dicyano-4-ethyl-6-(4-methyl-1,4-diazepan-1-yl)pyridin-2-ylthio)methyl)phenylboronic acid], the EC50 in experiment [1] was over 31600 nM. Also, in experiment [2] (setting [4]), the IC50 is 316 to 1000 nM.
As for `C[C@H](N)C(=O)NC1CCN(c2nc(SC(C(N)=O)c3ccccc3)c(C#N)c(C3CC3)c2C#N)CC1` (stereo partly drawn) [Example 655, (2S)-2-amino-N-(1-(6-((2-amino-2-oxo-1-phenylethyl)thio)-3,5-dicyano-4-cyclopropylpyridin-2-yl)piperidin-4-yl)propanamide], in experiment [1], the EC50 is 316 to 1000 nM. For the same compound, in experiment [2] (setting [3]), the “DNMT1 BioChemical (pIC50 category)” value was “D (Category D: ≥6.5)”.

The values are drawn from patent US10975056B2 (GlaxoSmithKline Intellectual Property Development Limited, priority 2016, dated 2021).
